Values quoted from earlier work as cited in patent US20130102469A1, “Method and compound for removing flora from sewer lines” (Swartz family dba Olvidium, priority 2011, published 2013).

System: tree roots

c1cc[n+]2c(c1)-c1cccc[n+]1CC2 [Diquat]
root kill (in words) (sewer line use, roots coated with organic detritus): spotty and inconsistent root kill

N#Cc1c(Cl)cccc1Cl [Dichlobenil, 2,6 dichlorobenzonitrile]
distance back from the contact site over which roots are killed (sewer line root control): 1-2 ″

CNC(=S)[S-].[Na+] [Metham Sodium]
root kill (inside the pipe and outside the pipe where the gas travels): 100%
